The source of these data is ChEMBL document CHEMBL1129700, “Utilization of wieland furoxan synthesis for preparation of 4-aryl-1,2,5-oxadiazole-3-yl carbamate derivatives having potent anti-HIV activity” (Bioorg Med Chem Lett, 1996).

For test [1], the system named is MT4. Nature of the test: Tested for 50% effective concentration based on the inhibition of HIV-I induced cytopathic effect in MT-4 cells. The note with it: Homo sapiens. The format is functional, cell-based.
A short description of test [2]: Selectivity index based on the ratio of CC50 to EC50. The test is classed as functional.
Test [3] relates to MT4. Nature of the test: Tested for 50% cytotoxic concentration based on the reduction of viability in mock-infected MT-4 cells. To be noted: Homo sapiens. The format is functional.

The EC50 is the concentration needed to bring the measured effect to its halfway point. The CC50 is the concentration that lowers cell viability or growth by half. In the test on MT4 [1], `CCCN(C)C(=O)Oc1no[n+]([O-])c1-c1c(Cl)cccc1Cl` yielded an EC50 of 0.12 µM. The SI in test [2] was 72. The midpoint of cytotoxicity in the test on MT4 [3], the CC50, lay at 8.6 µM.
`Cc1cn([C@H]2C[C@H](N=[N+]=[N-])[C@@H](CO)O2)c(=O)[nH]c1=O` [ZIDOVUDINE] yielded an EC50 in the test with MT4 [1] of 0.004 µM. Also, in test [2], the SI is 800. Also, the midpoint of cytotoxicity in the test on MT4 [3], the CC50, lay at 3.2 µM.
Taken in the same sequence, the figures for `CCCN(C)C(=O)Oc1no[n+]([O-])c1-c1ccccc1` were 20 µM, 1 and 25 µM.
In the case of `CCCN(C)C(=O)Oc1nsnc1-c1c(Cl)cccc1Cl`, the SI in test [2] was found to be 10000.
As to `CN(C)C(=O)Oc1nsnc1-c1ccccc1`, in the test with MT4 [1], the EC50 was found to be 5.6 µM. The SI in test [2] was 8. The same compound came in with a CC50 in the test with MT4 [3] of 46.8 µM.
In the test with MT4 [1], `CCCN(C)C(=O)Oc1nonc1-c1ccccc1` returned an EC50 of 2 µM. For the same compound, the SI in test [2] was 6.5. The CC50 in the test on MT4 [3] is 13 µM.
